Entries after “also recorded” stand apart in the source; their conditions may differ. Ends that are not written are not given here.

The results in this text go back to patent US10023615B2, “Efficient transport into white blood cells” (priority 2008, dated 2018).

Format in all cases: in vivo, mouse
Data set [1] can be described thus: Tissue distribution of C14 radiolabeled D-TAT-tagged peptides. Conditions: 1 mg/kg s.c., i.v., i.p.; 72 hours after injection. As for the experimental part:
Mice were treated via three different routes of administration (s.c., i.v., i.p.) with radiolabeled peptides with C^14 (1 mg/kg). Animals were sacrificed 72 hours after injection and processed for immunoradiography. […] This illustrates that the transporter D-TAT is responsible for the tissue distribution.

Data set [2] concerns db/db mice. Nature of the data set: db/db mice model of type 2 diabetes, chronic treatment. Conditions: 10 mg/kg.
In data set [3] the test system is amyloid plaques in cortex and hippocampus. The experiment in a line: Amyloid depositions and plaque load (6E10 IHC, ThioflavinS) in hAPP Tg mice. As for the experimental part: a) METHODS • i) Introduction • The study was designed to evaluate the efficacy of the test substance (XG-102, SEQ ID NO: 233) on behavioral, biochemical and histological markers using 5 months (±2 weeks) old female hAPP Tg mice. Therefore, mice were treated every two or three weeks up to 4 months and in the end of the treatment period behavior was evaluated in the Morris Water Maze. At sacrifice brain, CSF and blood were collected. Aβ40 and Aβ42 levels were determined in four different brain homogenate fractions as well as in CSF of Tg mice. Plaque load was quantified in the cortex and the hippocampus of 8 Tg animals per treatment group.
iv) Treatment • […] female hAPP transgenic mice were treated with either 0.1 mg/kg b.w./every two weeks or 10 mg/kg b.w./every three weeks of the test substance XG-102 (SEQ ID NO: 233) in two different dosages (n=12/group) or treated with the vehicle (n=12) s.c. once every three weeks over four months.
viii) Evaluation of Brain Morphology • Brain tissues of all Tg animals investigated were handled in exactly the same way to avoid bias due to variation of this procedure. From brain halves of 24 Tg mice (8 of each group) 20 cryo-sections per layer (altogether 5 layers), each 10 μm thick (Leica CM 3050S) were sagittally cut and 5 (one from each layer) were processed and evaluated for quantification of plaque load. The five sagittal layers corresponded with the FIGS. 104 to 105, 107 to 108, 111 to 112, 115 to 116 and 118 to 119 according to the morphology atlas “The Mouse Brain” from Paxinos and Franklin (2nd edition). The first layer was specified by the requirement to include the whole hippocampus with it's regions CA1, CA2, CA3, GDlb and GDmb. Immunoreactivity was quantitatively evaluated in the hippocampus and in the cortex using the monoclonal human Aβ-specific antibody 6E10 (Signet) as well as ThioflavinS staining. Remaining brain hemispheres or tissue not used were saved and stored at JSW CNS until the end of the project.
b) Evaluation • i) Behavior • In the Morris Water Maze trials length of swimming path, escape latencies, swimming speed and in the probe trial crossings over the former platform position and the time spent in each quadrant of the pool were measured for each Tg animal with a special computer software. • ii) Biochemical Evaluation • From all Tg mice CSF samples as well as samples from the brain preparations were analyzed with commercially available Aβ1-40 and Aβ1-42 ELISAs. Measurements of adequate standards were performed concurrently. Samples from brain preparations were analyzed in duplicates. […]

“dqsrpvqpflnIttprkprpprrrqrrkkrg (DQSRPVQPFLNLTTPRKPRPPRRRQRRKKRG; not fully specified (some residues); printed as dqsrpvqpflnIttprkprpprrrqrrkkrg) [XG-102]”: in data set [1], the “tissue distribution (accumulation)” value is “in the liver, spleen, and bone marrow predominantly”. In addition, the “plasma levels of insulin, MCP-1, IL-6, tPAI-1, TNF” value in data set [2] (day 57, 77 and 108) is “no significant effects”. Also, the plasma resistin entry in data set [2] (day 77 and 108) was “significantly higher”. Further, the “24 hour food and water intake, urine and faeces production (metabolic cages)” value in data set [2] (study day 68) is “no significant effects”. Besides, the “mean plaque size (ThioflavinS, hippocampus)” value in data set [3] (0.1 mg/kg) was “reduced mean plaque size, however this effect did not reach significance level in the ANOVA”. For the same substance, in data set [3] (10 mg/kg), the “6E10 IR plaque load (human amyloid)” value was “increased versus vehicle; also recorded: a tendentious increase of human amyloid beta”. Further, the “hippocampal ThioflavinS positive plaques (number, area percentage)” value in data set [3] (0.1 and 10 mg/kg) is reported as “a negatively dose dependent reduction; also recorded: dose dependently reduced”. In data set [3] (mouse, in vivo), the “beta-sheet structures in plaques (6E10 and ThioflavinS quantifications)” value is on record as “a selective reduction of beta-sheet structures in the center of the plaques”; the “cortical ThioflavinS plaque load” value is “not given for cortical plaques; also recorded: cortical plaque load remained unchanged”.
